US6828315B1, “1-Amino triazoloc4,3-a! quinazoline-5-ones and/or -5-thiones inhibiting phosphodiesterase IV” (Warner-Lambert LLC, priority 1999, dated 2004)
Where a name gives a salt, the structure may show the parent alone.

Structure (SMILES) | melting point
Cc1ccc2c(c1)c(=O)nc1n(CC=Cc3ccccc3)nc(N3CCCCCC3)n21 [Compound 157, 1-(azepan-1-yl)-7-methyl-3-(3-phenylallyl)-3H-[1,2,4]triazolo[4,3-a]quinazolin-5-one] | 193 °C
N#Cc1ccc(Cn2nc(N3CCCCCC3)n3c4ccc(Cl)cc4c(=O)nc23)cc1 [Compound 119, 1-(azepan-1-yl)-7-chloro-3-(4-cyanobenzyl)-3H-[1,2,4]triazolo[4,3-a]quinazolin-5-one] | > 260 °C
O=c1c2cc(Br)ccc2n2c(N3CCCC3)nnc2n1Cc1ccc2c(c1)OCO2 (hydrate or solvate) [Compound 53, 4-Benzo[1,3]dioxol-5-ylmethyl-7-bromo-1-pyrrolidin-1-yl-4H-[1,2,4]triazolo[4,3-a]quinazolin-5-one] | 194 °C
Cn1c(=O)c2cc(Cl)ccc2n2c(N3CCCCCC3)nnc12 [Compound 203, 1-(azepan-1-yl)-7-chloro-4-methyl-4H-[1,2,4]triazolo[4,3-a]-quinazolin-5-one] | 145 °C
N#Cc1ccc(Cn2nc(N3CCCCCC3)n3c4ccc(Br)cc4c(=O)nc23)cc1 [Compound 136, 4(1-(azepan-1-yl)-7-bromo-5-oxo-5H-[1,2,4]triazolo[4,3-a]-quinazolin-3-ylmethyl)-benzonitrile] | 293 °C
COc1ccccc1Cn1nc(N2CCCCCC2)n2c3ccc(Cl)cc3c(=O)nc12 [Compound 120, 1-(azepan-1-yl)-7-chloro-3-(2-methoxybenzyl)-3H-[1,2,4]triazolo[4,3-a]quinazolin-5-one] | 184 °C
CCCCn1nc(N2CCCC2)n2c3ccc(Br)cc3c(=O)nc12 [Compound 153, 7-bromo-3-(n-butyl)-1-(pyrrolidin-1-yl)-3H-[1,2,4]triazolo[4,3-a]-quinazolin-5-one] | 130 °C
COc1cc(Cn2nc(N3CCCC3)n3c4ccc(Br)cc4c(=O)nc23)cc(OC)c1OC [Compound 151, 7-bromo-1-(pyrrolidin-1-yl)-3-(3,4,5-trimethoxybenzyl)-3H-[1,2,4]triazolo[4,3-a]quinazolin-5-one] | 199 to 201 °C
O=c1nc2n(Cc3cccc(Cl)c3)nc(N3CCCCCC3)n2c2ccc(Cl)cc12 [Compound 114, 1-(azepan-1-yl)-7-chloro-3-(3-chlorobenzyl)-3H-[1,2,4]triazolo[4,3-a]quinazolin-5one] | 166 °C
Cc1ccc2c(c1)c(=O)n(Cc1ccccc1)c1nnc(N(C)C)n21 [Compound 192, 4-Benzyl-1-dimethylamino-7-methyl-4H-[1,2,4]triazolo[4,3-a]quinazolin-5-one] | 186 °C
O=c1nc2n(Cc3ccccn3)nc(N3CCCCCC3)n2c2ccc(Cl)cc12 [Compound 125, 1-(azepan-1-yl)-7-chloro-3-(2-pyridylmethyl)-3H-[1,2,4]triazolo[4,3-a]quinazolin-5-one] | 153 °C
Cn1c(=O)c2cc(I)ccc2n2c(N3CCCCCC3)nnc12 [Compound 213, 1-(azepan-1-yl)-7-iodo-4-methyl-4H-[1,2,4]triazolo[4,3-a]-quinazolin-5-one] | 206 °C
O=C(Cn1nc(N2CCCCCC2)n2c3ccc(Cl)cc3c(=O)nc12)c1ccccc1 [Compound 130, 1-Azepan-1-yl-7-chloro-3-(2-oxo-2-phenyl-ethyl)3H-[1,2,4]triazolo[4,3-a]quinazolin-5-one] | 230 to 232 °C
CN(C)c1nnc2n(CC=Cc3ccncc3)c(=O)c3cc(Br)ccc3n12 [Compound 87, 7-Bromo-1-dimethylamino-4-(3-pyridin-4-yl-allyl)-4H-[1,2,4]triazolo[4,3-a]quinazolin-5-one] | 115 °C
C#CCn1c(=O)c2cc(Br)ccc2n2c(N(C)C)nnc12 [Compound 88, 7-Bromo-1-dimethylamino-4-prop-2-ynyl-4H-[1,2,4]triazolo[4,3-a]quinazolin-5-one] | 234 °C
C#CCn1c(=O)c2cc(Br)ccc2n2c(N3CCCC3)nnc12 [Compound 70, 7-Bromo-4-prop-2-ynyl-1-pyrrolidin-1-yl-4H-[1,2,4]triazolo[4,3-a]quinazolin-5-one] | 204 °C
CN(C)c1nnc2n(Cc3ccc(C#N)cc3)c(=O)c3cc(N)ccc3n12 [Compound 228, 4-(7-Amino-1-dimethylamino-5-oxo-5H-[1,2,4]triazolo[4,3-a]quinazolin-4-ylmethyl)-benzonitrile] | 163 °C
CN(C)c1nnc2n(Cc3ccc(CC(=O)O)cc3)c(=O)c3cc(Br)ccc3n12 [Compound 82, [4-(7-Bromo-1-dimethylamino-5-oxo-5H-[1,2,4]triazolo[4,3-a]quinazolin-4-ylmethyl)-phenyl]-acetic acid] | 246 °C
CCN(CC)CCn1c(=O)c2cc(Br)ccc2n2c(N3CCCC3)nnc12 (as salt: HCl) [Compound 69, 7-Bromo-4-(2diethylamino-ethyl)-1-pyrrolidin-1-yl-4H-[1,2,4)triazolo[4,3-a]quinazolin-5-one] | 215 °C
Cn1c(=O)c2cc(Cl)ccc2n2c(N3CCCC3)nnc12 [Compound 205, 7-chloro-4-methyl-1-(pyrrolidin-1-yl)-4H-[1,2,4]triazolo[4,3-a]-quinazolin-5-one] | 203 to 205 °C
O=c1nc2n(C/C=C/c3ccccc3)nc(N3CCCCCC3)n2c2ccc(Br)cc12 [Compound 140, 1-Azepan-1-yl-7-bromo-3-((E)-3-phenyl-allyl)-3H-[1,2,4]triazolo(4,3-a]quinazolin-5-one] | 198 °C
COc1cc(Cn2nc(N3CCCC3)n3c4ccc(Br)cc4c(=O)nc23)cc(OC)c1 [Compound 150, 7-bromo-3-(3,5-dimethoxy-benzyl)-1-(pyrrolidin-1-yl)-3H-[1,2,4]triazolo-[4,3-a]quinazolin-5-one] | 168 °C
Cn1c(=O)c2cc(Cl)ccc2n2c(N3CCCc4ccccc43)nnc12 [Compound 208, 7-chloro-1-(3,4-dihydro-2H-quinolin-1-yl)-4-methyl-4H-[1,2,4]triazolo[4,3-a]quinazolin-5-one] | 204 °C
O=c1nc2n(CC=Cc3ccccc3)nc(N3CCCCCC3)n2c2ccccc12 [Compound 109, 1-(azepan-1-yl)-3-(3-phenylallyl)-3H-[1,2,4]triazolo[4,3-a]-quinazolin-5-one] | 176 °C
COc1ccc(CCn2c(=O)c3cc(Cl)ccc3n3c(N4CCCCCC4)nnc23)cc1 [Compound 25, 1-(azepan-1-yl)-7-chloro-4-[2-(4-methoxyphenyl)ethyl]-4H-[1,2,4]triazolo[4,3-a]quinazolin-5-one] | 136 °C
COC(=O)C(c1ccccc1)n1c(=O)c2cc(Br)ccc2n2c(N3CCCC3)nnc12 (stereo not shown) [Compound 73, (7-Bromo-5-oxo-1-pyrrolidin-1-yl-5H-[1,2,4]triazolo[4,3-a]quinazolin-4-yl)-phenyl-acetic acid methyl ester] | 184 °C
O=C(Cn1c(=O)c2cc(Cl)ccc2n2c(N3CCCCCC3)nnc12)c1ccc(Cl)cc1 [Compound 29, 1-(azepan-1-yl)-7-chloro-4[2-(4-chlorophenyl)-2-oxoethyl]-4H-[1,2,4]triazolo[4,3-a]quinazolin-5-one] | 190 °C
O=c1nc2n(Cc3ccc(Cl)cc3)nc(N3CCCCCC3)n2c2ccc(Cl)cc12 [Compound 115, 1-(azepan-1-yl)-7-chloro-3-(4-chlorobenzyl)-3H-[1,2,4]triazolo[4,3-a]quinazolin-5-one] | 245 °C
